In ChEMBL document CHEMBL5096216, “Rational Design, Synthesis, and Biological Evaluation of Novel S1PR2 Antagonists for Reversing 5-FU-Resistance in Colorectal Cancer” (J Med Chem, 2022):
Activity calls are given as the source filed them. The calls are words filed in the database; no cut-off is given here.

What was measured:
SW620/5-FU [1] = test: Antitumor activity against human SW620/5-FU cells xenografted in nude mouse assessed as tumor volume at 10 mg/kg/day, iv measured on day 1 in presence of 5-FU (reference value: 105 +/- 14 mm3); format: functional; conditions: time 1 day
[2] = Toxicity in nude mouse xenografted with human SW620/5-FU cells assessed as morphological changes in lung at 1 to 10 mg/kg/day, iv by hematoxylin-eosin staining based analysis; format: organism-based; conditions: in vivo, dose 1-10 mg/kg/day
HCT-116 [3] = test: Reversal of 5-FU resistance in human HCT-116 cells overexpressing DPD assessed as reduction in cell viability incubated for 48 hrs in presence of 5-FU by MTT assay; format: functional, cell-based; conditions: HCT-116, 48 h
SW620/5-FU [4] = test: Induction of apoptosis in human SW620/5-FU cells assessed as late apoptotic cells at 10 uM incubated for 24 hrs in presence of 5-FU by Annexin-V/PI staining based flow cytometry assay (reference value: 2.97%); format: functional
SW620/5-FU [5] = test: cells; conditions: Homo sapiens, 48 h
[6] = Toxicity in nude mouse xenografted with human SW620/5-FU cells assessed as morphological changes in spleen at 1 to 10 mg/kg/day, iv by hematoxylin-eosin staining based analysis; format: organism-based; conditions: in vivo, dose 1-10 mg/kg/day
[7] = biological target: Sphingosine 1-phosphate receptor 2 (Homo sapiens, UniProt O95136); test: Binding affinity to S1PR2 (unknown origin) assessed as dissociation constant by surface plasmon resonance analysis
SW620/5-FU [8] = test: Antitumor activity against human SW620/5-FU cells xenografted in nude mouse assessed as tumor wight at 10 mg/kg/day, iv in presence of 5-FU (reference value: 1.3 +/- 0.6 g); format: functional
SW620/5-FU [9] = test: Antitumor activity against human SW620/5-FU cells xenografted in nude mouse assessed as tumor growth inhibition at 10 mg/kg/day, iv in presence of 5-FU; format: functional; conditions: read-out: TGI
SW620/5-FU [10] = test: cells; conditions: Homo sapiens, 48 h; remark: listed apart in the source
SW620/5-FU [11] = test: Antitumor activity against human SW620/5-FU cells xenografted in nude mouse assessed as tumor volume at 1 mg/kg/day, iv measured on day 1 in presence of 5-FU (reference value: 105 +/- 14 mm3); format: functional; conditions: time 1 day
SW620/5-FU [12] = test: Induction of apoptosis in human SW620/5-FU cells assessed as late apoptotic cells at 20 uM incubated for 24 hrs in presence of 5-FU by Annexin-V/PI staining based flow cytometry assay (reference value: 2.97%); format: functional
SW620/5-FU [13] = test: Downregulation of JMJD3 expression in human SW620/5-FU cells incubated for 12 hrs by Western blot analysis; format: functional, cell-based; conditions: dose 2.5-20 µM, DDE = dose-dependent effect
[14] = Metabolic stability in human plasma assessed as compound remaining at 1 mg/ml measured after 48 hrs by HPLC analysis; format: ADME, cell-free; conditions: read-out: Stability
SW620/5-FU [15] = test: Antitumor activity against human SW620/5-FU cells xenografted in nude mouse assessed as tumor volume at 5 mg/kg/day, iv measured on day 1 in presence of 5-FU (reference value: 105 +/- 14 mm3); format: functional; conditions: time 1 day
[16] = Toxicity in nude mouse xenografted with human SW620/5-FU cells assessed as morphological changes in liver at 1 to 10 mg/kg/day, iv by hematoxylin-eosin staining based analysis; format: organism-based; conditions: in vivo, dose 1-10 mg/kg/day
HCT-116 [17] = test: Reversal of 5-FU resistance in human HCT-116 cells overexpressing DPD assessed as fold reduction in 5-Fluorouracil IC50 at 2 uM incubated for 48 hrs; format: functional
Mus musculus [18] = test: In vivo inhibition of tumor DPD expression in human SW620/5-FU cells xenografted in nude mouse at 1 to 10 mg/kg/day by Western blot analysis; format: functional, organism-based; conditions: dose 1-10 mg/kg/day
SW620/5-FU [19] = test: Induction of apoptosis in human SW620/5-FU cells assessed as necrotic cells at 20 uM incubated for 24 hrs by Annexin-V/PI staining based flow cytometry assay (reference value: 0%); format: functional
HCT-116 [20] = test: cells; conditions: Homo sapiens, HCT-116, 48 h
Description: Reversal of 5-FU resistance in human HCT-116 cells overexpressing DPD assessed as reduction in 5-Fluorouracil IC50 at 2 uM incubated for 48 hrs (Rvb = 1836.66 +/- 87.95 %)

[21] = Toxicity in nude mouse xenografted with human SW620/5-FU cells assessed as morphological changes in heart at 1 to 10 mg/kg/day, iv by hematoxylin-eosin staining based analysis; format: organism-based; conditions: in vivo, dose 1-10 mg/kg/day
SW620/5-FU [22] = test: Induction of apoptosis in human SW620/5-FU cells assessed as early apoptotic cells at 20 uM incubated for 24 hrs in presence of 5-FU by Annexin-V/PI staining based flow cytometry assay (reference value: 2.73%); format: functional
[23] = Toxicity in nude mouse xenografted with human SW620/5-FU cells assessed as morphological changes in kidney at 1 to 10 mg/kg/day, iv by hematoxylin-eosin staining based analysis; format: organism-based; conditions: in vivo, dose 1-10 mg/kg/day
SW620/5-FU [24] = test: Antitumor activity against human SW620/5-FU cells xenografted in nude mouse assessed as tumor growth inhibition at 1 mg/kg/day, iv in presence of 5-FU; format: functional; conditions: read-out: TGI
SW620/5-FU [25] = test: Reversal of 5-FU resistance in human SW620/5-FU cells assessed as fold reduction in 5-Fluorouracil IC50 at 2 uM incubated for 48 hrs; format: functional
HCT-116 [26] = test: cells; conditions: Homo sapiens, HCT-116, 48 h; remark: listed apart in the source
Description: Reversal of 5-FU resistance in human HCT-116 cells overexpressing DPD assessed as reduction in 5-Fluorouracil IC50 at 5 uM incubated for 48 hrs (Rvb = 1836.66 +/- 87.95 %)

SW620/5-FU [27] = test: Induction of apoptosis in human SW620/5-FU cells assessed as necrotic cells at 10 uM incubated for 24 hrs in presence of 5-FU by Annexin-V/PI staining based flow cytometry assay (reference value: 0%); format: functional
Mus musculus [28] = test: In vivo inhibition of liver DPD expression in human SW620/5-FU cells xenografted in nude mouse at 1 to 10 mg/kg/day by Western blot analysis; format: functional, organism-based; conditions: dose 1-10 mg/kg/day
HT-29 [29] = test: cells; conditions: Homo sapiens, HT-29, 48 h
Description: Reversal of 5-FU resistance in human HT-29 cells assessed as reduction in 5-Fluorouracil IC50 at 2 uM incubated for 48 hrs (Rvb = 2768.36 +/- 89.25 %)

SW620/5-FU [30] = test: Antitumor activity against human SW620/5-FU cells xenografted in nude mouse assessed as tumor volume at 1 mg/kg/day, iv measured on day 15 in presence of 5-FU (reference value: 1991 +/- 469 mm3); format: functional; conditions: time 15 day
HT-29 [31] = test: Downregulation of JMJD3 expression in 5-FU resistant human HT-29 cells incubated for 12 hrs by Western blot analysis; format: functional, cell-based; conditions: dose 2.5-20 µM, DDE = dose-dependent effect
SW620/5-FU [32] = test: Downregulation of DPD expression in human SW620/5-FU cells incubated for 12 hrs by Western blot analysis; format: functional, cell-based; conditions: dose 2.5-20 µM, DDE = dose-dependent effect
[33] = Metabolic stability in rat plasma assessed as compound remaining at 1 mg/ml measured after 48 hrs by HPLC analysis; format: ADME, cell-free; conditions: read-out: Stability
HT-29 [34] = test: cells; conditions: Homo sapiens, HT-29, 48 h; remark: listed apart in the source
Description: Reversal of 5-FU resistance in human HT-29 cells assessed as reduction in 5-Fluorouracil IC50 at 5 uM incubated for 48 hrs (Rvb = 2768.36 +/- 89.25 %)

NCM460 = test: Cytotoxicity against human NCM460 cells assessed as reduction in cell viability incubated for 48 hrs in presence of 5-FU by MTT assay; format: functional, cell-based; conditions: NCM460, 48 h
SW620/5-FU [35] = test: Antitumor activity against human SW620/5-FU cells xenografted in nude mouse assessed as tumor volume at 5 mg/kg/day, iv measured on day 15 in presence of 5-FU (reference value: 1991 +/- 469 mm3); format: functional; conditions: time 15 day

Chain of Sphingosine 1-phosphate receptor 2 (O95136 whole entry): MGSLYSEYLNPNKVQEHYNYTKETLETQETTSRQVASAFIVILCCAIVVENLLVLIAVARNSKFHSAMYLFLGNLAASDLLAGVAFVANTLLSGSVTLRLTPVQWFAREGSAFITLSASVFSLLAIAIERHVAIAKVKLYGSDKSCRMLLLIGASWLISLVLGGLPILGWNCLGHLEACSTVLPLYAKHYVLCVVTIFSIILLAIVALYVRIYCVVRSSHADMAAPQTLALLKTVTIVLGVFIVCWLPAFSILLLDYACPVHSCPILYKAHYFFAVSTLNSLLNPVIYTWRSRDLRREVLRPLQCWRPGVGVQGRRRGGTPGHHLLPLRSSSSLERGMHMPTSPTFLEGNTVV

CCC(CC)CN1CCN(C(=O)Nc2cc(Oc3ccc(F)cc3)cc(Oc3ccc(C(=O)NC)cc3)c2)CC1
Activity (SW620/5-FU [1]): 104 mm3 | Activity [2]: Non-Toxic | IC50 (HCT-116 [3]): 6.42 µM | Activity (SW620/5-FU [4]): 7.76% | IC50 (SW620/5-FU [5]): 17.6 µM | Activity [6]: Non-Toxic | Kd [7]: 0.00073 µM | Activity (SW620/5-FU [8]): 0.3 g | inhibition in vivo at 10 mg/kg/day (SW620/5-FU [9]): 73.8% | IC50 (SW620/5-FU [10]): 36.8 µM | Activity (SW620/5-FU [11]): 104 mm3 | Activity (SW620/5-FU [12]): 7.14% | Activity (SW620/5-FU [13]): Dde | remaining at 48 h, 1 mg/ml [14]: 96.4% | Activity (SW620/5-FU [15]): 103 mm3 | Activity [16]: Non-Toxic | fold change (FC) (HCT-116 [17]): 33 | inhibition (Mus musculus [18]): Active | Activity (SW620/5-FU [19]): 0.086% | IC50 (HCT-116 [20]): 56.4 µM | Activity [21]: Non-Toxic | Activity (SW620/5-FU [22]): 28.6% | Activity [23]: Non-Toxic | inhibition in vivo at 1 mg/kg/day (SW620/5-FU [24]): 49.5% | fold change (FC) (SW620/5-FU [25]): 42 | IC50 (HCT-116 [26]): 45.1 µM | Activity (SW620/5-FU [27]): 0.17% | inhibition (Mus musculus [28]): Active | IC50 (HT-29 [29]): 42.1 µM | Activity (SW620/5-FU [30]): 1006 mm3 | Activity (HT-29 [31]): Dde | Activity (SW620/5-FU [32]): Dde | remaining at 48 h, 1 mg/ml [33]: 93% | IC50 (HT-29 [34]): 21.8 µM | IC50 (NCM460): > 100 µM | Activity (SW620/5-FU [35]): 662 mm3
